Reference: the NIST ThermoML archive (doi:10.1021/je050402s)
± gives the expanded uncertainty stated by the source.

Test: xn = mol fraction of the nth substance listed
Details: 100.5 kPa, Liquid

CCC(=O)OCc1ccccc1 [benzyl propanoate] + CCO
viscosity [mPa·s], Capillary tube (Ostwald / Ubbelohde) method
Details	288.15 K	298.15 K	308.15 K	318.15 K
x1 = 0.05	1.352 ± 0.014	1.115 ± 0.014	0.929 ± 0.013	0.777 ± 0.013
x1 = 0.1	1.379 ± 0.014	1.14 ± 0.014	0.949 ± 0.013	0.795 ± 0.013
x1 = 0.15	1.42 ± 0.014	1.173 ± 0.014	0.976 ± 0.013	0.819 ± 0.013
x1 = 0.2	1.466 ± 0.014	1.211 ± 0.014	1.009 ± 0.013	0.848 ± 0.013
x1 = 0.25	1.516 ± 0.015	1.253 ± 0.014	1.044 ± 0.013	0.879 ± 0.013
x1 = 0.3	1.571 ± 0.015	1.298 ± 0.014	1.084 ± 0.014	0.913 ± 0.013
x1 = 0.35	1.631 ± 0.015	1.348 ± 0.014	1.127 ± 0.014	0.95 ± 0.013
x1 = 0.4	1.694 ± 0.015	1.401 ± 0.014	1.171 ± 0.014	0.988 ± 0.013
x1 = 0.45	1.757 ± 0.015	1.454 ± 0.015	1.217 ± 0.014	1.027 ± 0.013
x1 = 0.5	1.821 ± 0.016	1.509 ± 0.015	1.263 ± 0.014	1.067 ± 0.014
x1 = 0.55	1.886 ± 0.016	1.564 ± 0.015	1.31 ± 0.014	1.107 ± 0.014
x1 = 0.6	1.952 ± 0.016	1.621 ± 0.015	1.358 ± 0.014	1.148 ± 0.014
x1 = 0.65	2.019 ± 0.017	1.678 ± 0.015	1.407 ± 0.015	1.19 ± 0.014
x1 = 0.7	2.088 ± 0.017	1.737 ± 0.016	1.457 ± 0.015	1.233 ± 0.014
x1 = 0.75	2.158 ± 0.017	1.797 ± 0.016	1.509 ± 0.015	1.278 ± 0.014
x1 = 0.8	2.23 ± 0.018	1.858 ± 0.016	1.562 ± 0.015	1.323 ± 0.014
x1 = 0.85	2.305 ± 0.018	1.921 ± 0.017	1.617 ± 0.015	1.37 ± 0.015
x1 = 0.9	2.383 ± 0.018	1.986 ± 0.017	1.674 ± 0.016	1.419 ± 0.015
x1 = 0.95	2.463 ± 0.019	2.053 ± 0.017	1.729 ± 0.016	1.468 ± 0.015
x1 = 1	2.55 ± 0.019	2.123 ± 0.018	1.787 ± 0.016	1.515 ± 0.015

mass density [kg/m3]
Details	288.15 K	298.15 K	308.15 K	318.15 K
x1 = 0.05	825.63 ± 0.4	816.86 ± 0.42	807.99 ± 0.43	798.97 ± 0.44
x1 = 0.1	852.43 ± 0.36	843.5 ± 0.38	834.48 ± 0.39	825.3 ± 0.41
x1 = 0.15	875.21 ± 0.33	866.17 ± 0.35	857.03 ± 0.36	847.75 ± 0.38
x1 = 0.2	894.95 ± 0.31	885.82 ± 0.32	876.6 ± 0.34	867.25 ± 0.35
x1 = 0.25	912.16 ± 0.29	902.96 ± 0.31	893.68 ± 0.32	884.27 ± 0.33
x1 = 0.3	927.38 ± 0.28	918.13 ± 0.29	908.8 ± 0.3	899.34 ± 0.32
x1 = 0.35	940.83 ± 0.27	931.54 ± 0.28	922.17 ± 0.29	912.69 ± 0.3
x1 = 0.4	952.87 ± 0.26	943.55 ± 0.27	934.16 ± 0.28	924.65 ± 0.29
x1 = 0.45	963.72 ± 0.26	954.39 ± 0.27	944.97 ± 0.28	935.46 ± 0.29
x1 = 0.5	973.57 ± 0.26	964.22 ± 0.26	954.79 ± 0.27	945.28 ± 0.28
x1 = 0.55	982.43 ± 0.25	973.07 ± 0.26	963.63 ± 0.27	954.12 ± 0.28
x1 = 0.6	990.54 ± 0.25	981.17 ± 0.26	971.74 ± 0.27	962.24 ± 0.27
x1 = 0.65	997.98 ± 0.26	988.61 ± 0.26	979.19 ± 0.27	969.71 ± 0.27
x1 = 0.7	1004.81 ± 0.27	995.44 ± 0.27	986.04 ± 0.27	976.58 ± 0.28
x1 = 0.75	1011.09 ± 0.28	1001.73 ± 0.27	992.35 ± 0.28	982.93 ± 0.28
x1 = 0.8	1016.98 ± 0.3	1007.63 ± 0.29	998.28 ± 0.28	988.88 ± 0.29
x1 = 0.85	1022.5 ± 0.31	1013.15 ± 0.31	1003.82 ± 0.3	994.46 ± 0.3
x1 = 0.9	1027.59 ± 0.33	1018.25 ± 0.32	1008.96 ± 0.31	999.64 ± 0.31
x1 = 0.95	1032.37 ± 0.35	1023.06 ± 0.34	1013.8 ± 0.33	1004.53 ± 0.32
x1 = 1	1036.86 ± 0.36	1027.6 ± 0.35	1018.38 ± 0.34	1009.15 ± 0.34

CCOC(=O)c1ccccc1O [ethyl 2-hydroxybenzoate] + CCO
Details	mass density, 288.15 K [kg/m3]	mass density, 298.15 K [kg/m3]	mass density, 308.15 K [kg/m3]	mass density, 318.15 K [kg/m3]	viscosity, 288.15 K [mPa·s]	viscosity, 298.15 K [mPa·s]	viscosity, 308.15 K [mPa·s]	viscosity, 318.15 K [mPa·s]
x1 = 0.05	835.47 ± 0.39	826.63 ± 0.4	817.7 ± 0.41	808.61 ± 0.43	1.398 ± 0.019	1.145 ± 0.017	0.953 ± 0.016	0.802 ± 0.015
x1 = 0.1	871.02 ± 0.34	862 ± 0.35	852.86 ± 0.36	843.56 ± 0.38	1.467 ± 0.02	1.197 ± 0.018	0.998 ± 0.016	0.836 ± 0.015
x1 = 0.15	901.89 ± 0.3	892.7 ± 0.31	883.41 ± 0.33	873.95 ± 0.34	1.533 ± 0.02	1.258 ± 0.018	1.043 ± 0.017	0.877 ± 0.016
x1 = 0.2	928.98 ± 0.27	919.64 ± 0.28	910.21 ± 0.29	900.63 ± 0.31	1.615 ± 0.021	1.322 ± 0.019	1.094 ± 0.017	0.915 ± 0.016
x1 = 0.25	952.87 ± 0.24	943.42 ± 0.25	933.9 ± 0.27	924.22 ± 0.28	1.708 ± 0.022	1.388 ± 0.019	1.147 ± 0.018	0.957 ± 0.016
x1 = 0.3	974.13 ± 0.22	964.62 ± 0.24	955.01 ± 0.25	945.25 ± 0.26	1.8 ± 0.023	1.455 ± 0.02	1.198 ± 0.018	0.999 ± 0.016
x1 = 0.35	993.22 ± 0.21	983.64 ± 0.22	973.96 ± 0.23	964.15 ± 0.24	1.902 ± 0.023	1.526 ± 0.02	1.254 ± 0.018	1.045 ± 0.017
x1 = 0.4	1010.45 ± 0.22	1000.81 ± 0.22	991.08 ± 0.22	981.22 ± 0.23	2.001 ± 0.024	1.598 ± 0.021	1.313 ± 0.019	1.093 ± 0.017
x1 = 0.45	1026.08 ± 0.25	1016.38 ± 0.23	1006.61 ± 0.23	996.72 ± 0.22	2.104 ± 0.025	1.677 ± 0.022	1.373 ± 0.019	1.141 ± 0.017
x1 = 0.5	1040.36 ± 0.27	1030.63 ± 0.26	1020.8 ± 0.24	1010.88 ± 0.23	2.209 ± 0.026	1.757 ± 0.022	1.435 ± 0.02	1.192 ± 0.018
x1 = 0.55	1053.4 ± 0.28	1043.63 ± 0.26	1033.79 ± 0.25	1023.85 ± 0.24	2.317 ± 0.027	1.838 ± 0.023	1.498 ± 0.02	1.242 ± 0.018
x1 = 0.6	1065.37 ± 0.29	1055.57 ± 0.27	1045.7 ± 0.26	1035.76 ± 0.25	2.428 ± 0.028	1.921 ± 0.024	1.561 ± 0.021	1.294 ± 0.019
x1 = 0.65	1076.35 ± 0.3	1066.53 ± 0.29	1056.65 ± 0.27	1046.7 ± 0.26	2.543 ± 0.029	2.006 ± 0.024	1.627 ± 0.021	1.347 ± 0.019
x1 = 0.7	1086.51 ± 0.32	1076.67 ± 0.3	1066.79 ± 0.29	1056.85 ± 0.28	2.664 ± 0.03	2.096 ± 0.025	1.695 ± 0.022	1.403 ± 0.02
x1 = 0.75	1095.97 ± 0.33	1086.12 ± 0.32	1076.24 ± 0.3	1066.31 ± 0.29	2.8 ± 0.032	2.187 ± 0.026	1.766 ± 0.022	1.463 ± 0.02
x1 = 0.8	1104.72 ± 0.35	1094.88 ± 0.33	1085.02 ± 0.32	1075.11 ± 0.31	2.943 ± 0.033	2.288 ± 0.027	1.846 ± 0.023	1.527 ± 0.021
x1 = 0.85	1112.93 ± 0.36	1103.09 ± 0.35	1093.24 ± 0.33	1083.37 ± 0.32	3.1 ± 0.035	2.398 ± 0.028	1.932 ± 0.024	1.596 ± 0.021
x1 = 0.9	1120.61 ± 0.38	1110.81 ± 0.36	1101 ± 0.35	1091.17 ± 0.34	3.268 ± 0.037	2.522 ± 0.029	2.03 ± 0.025	1.678 ± 0.022
x1 = 0.95	1127.85 ± 0.39	1118.07 ± 0.38	1108.31 ± 0.36	1098.55 ± 0.35	3.503 ± 0.039	2.706 ± 0.031	2.163 ± 0.026	1.781 ± 0.023
x1 = 1	1134.72 ± 0.41	1125 ± 0.39	1115.29 ± 0.38	1105.6 ± 0.37	3.694 ± 0.041	2.831 ± 0.032	2.253 ± 0.027	1.842 ± 0.023
